≈ marks a conversion by molar mass, not a printed value.

The values below come from patent publication US4078079A, “Thiocyano-xanthate miticides” (Stauffer Chemical Company, priority 1976, dated 1978).

For assay [1], the system named is Staphylococcus aureus. Put plainly: Staphylococcus Aureus Use Dilution Test. The conditions noted are these: Tryptic Soy Broth, 24 hours, 37° C, read-out: Minimum Inhibitory Concentration. Type of assay: cell-based. The protocol:
This test measures the bacteriostatic effectiveness of a particular test compound against Staphylococcus aureus. Tryptic Soy Broth is dispensed aseptically into sterile 13 × 100 mm. clear glass culture tubes. The first tube receives 3.6 ml. of medium and tubes 2 through 10 receive 2.0 ml. of medium. The test compound is dissolved in acetone to give 10 ml. of a solution of 0.10% of the test compound. Using a sterile syringe, 0.4 ml. of the test compound solution is placed in the first tube containing the 3.6 ml. of sterile broth and mixed thoroughly. This operation is continued through to the tenth tube. From the tenth tube, 2.0 ml. of solution is removed and discarded. Each tube is then innoculated with 0.1 ml. of a 24 hour culture of Staphylococcus aureus in Tryptic Soy Broth, and the mixture is mixed thoroughly using a Vortex mixer. A control is also set up to be sure that the inoculum is viable using a tube of sterile broth containing no added toxicant. The tubes are incubated for 24 hours at 37° C. The tubes are then examined to determine growth of the organism in the culture tubes. The minimum concentration in which no growth of the organism occurs is recorded. The following table gives the minimum inhibitory concentration necessary to control the organism: […]

Assay [2] concerns Two-spotted Mite (2-SM) Tetranychus urticae (Koch). Put plainly: Plant Dip Assay on Two-Spotted Mite, 2-SM PE. Type of assay: in vivo. To be noted: infested Pinto Bean plants dipped 2-3 seconds, mortality after seven days, adult mites. The source says:
The Two-spotted Mite (2-SM) Tetranychus urticae (Koch) is subjected to evaluation tests for miticidal activity. Plant Dip Assay on Two-Spotted Mite [Tetranychus urticae (Koch)] Pinto Bean plants (Phaseolus sp.) approximately 10 cm tall, are transplanted into sandy loam soil in 3 inch clay pots and thoroughly infested with two-spotted mites of mixed ages and sexes. Twenty-four hours later the infested plants are inverted and dipped for 2-3 seconds in 50-50 acetone-water solutions of the test chemicals. Treated plants are held in the greenhouse, and seven days later mortality is determined for both the adult mites and the nymphs hatching from eggs which were on the plants at the time of treatment. Test concentrations range from 0.05% down to that at which 50% mortality occurs. The values obtained in this test are found in Table VII under the Columns 2SM-PE and 2SM-Eggs.

A further assay has as its system Phoma herbarum. In words: Biocide Testing Procedure (malt extract broth). Type of assay: cell-based. To be noted: 168 h, one week, read-out: lowest concentration which provides 50% inhibition of growth. How it is done:
Biocide Testing Procedure Tubes of sterilized nutrient and malt extract broth are prepared. Aliquots of the toxicant, dissolved in an appropriate solvent, are injected through the stopper, into the broth, to provide concentrations ranging from 50 ppm downward. The test organism is a fungus, Phoma herbarum. Three drops of a spore suspension of the fungus are injected into the tubes of malt broth. One week later the growth of the organism is observed and effectiveness of the chemical is recorded as the lowest concentration in ppm which provides 50% inhibition of growth as compared to untreated inoculated tube.

The next assay has as its system Aspergillus oryzae. Put plainly: In Vitro Agar Screening Tests (Example 4). To be noted: potato dextrose agar, 30° C, partial control at this concentration, read-out: Minimum Inhibitory Concentration. Type of assay: cell-based. The protocol:
(§1) This test measures the bactericidal, fungicidal and algaecidal properties of a compound when in contact with growing bacteria, fungi or algae in an artificial medium. The test is conducted by adding 20 ml. portions of a suitable warm sterile agar solution into 20 × 100 Petri dishes. Then, the text compound, in 0.5% acetone solution, is added to the Petri dishes at levels of 1, 5, 10 and 50 μg/ml. and mixed with the warm mobile agar solution. The treated agar mixture is then allowed to come to room temperature and solidify. Cells of the chosen organism are streaked on the surface of the solidified agar and are then incubated for such lengths of time that untreated samples containing no toxicant show luxurious growth typical of the particular organism. This time varies from 24 hours to one week depending on the particular organism. The fungi are incubated at 30° C and the bacteria are incubated at 37° C. The algae are incubated at room temperature under artificial light. Nutrient agar is used as the medium in this test for the bacteria. Potato dextrose agar is used as the medium for the fungi with the exception of Trichophyton mentagrophytes for which Emmons agar is used. A modified Jack Meyers agar is used for the growth of the algae.
(§2) The extent of growth is noted at the end of the incubation period.

In assay [3] the test system is Staphylococcus aureus. Put plainly: In Vitro Agar Screening Tests (Example 4). Type of assay: cell-based. To be noted: nutrient agar, 37° C, read-out: Minimum Inhibitory Concentration. How it is done: as §1, §2
The test system of another assay is Pencillium expansum. In words: In Vitro Agar Screening Tests (Example 4). Type of assay: cell-based. To be noted: potato dextrose agar, 30° C, partial control at this concentration, read-out: Minimum Inhibitory Concentration. The protocol: as §1, §2
Assay [4] has as its system Trichophyton mentagrophytes. In words: In Vitro Agar Screening Tests (Example 4). Type of assay: cell-based. The conditions noted are these: Emmons agar, 30° C, partial control at this concentration, read-out: Minimum Inhibitory Concentration. The protocol: as §1, §2
The next assay concerns Escherichia coli. In words: In Vitro Agar Screening Tests (Example 4). Type of assay: cell-based. To be noted: nutrient agar, 37° C, read-out: Minimum Inhibitory Concentration. How it is done: as §1, §2
The test system of the next assay is Pencillium ochra-chloron. In words: In Vitro Agar Screening Tests (Example 4). Type of assay: cell-based. To be noted: potato dextrose agar, 30° C, partial control at this concentration, read-out: Minimum Inhibitory Concentration. The protocol:
as §1, §2

Another assay relates to Pseudomonas fluorescens. Put plainly: In Vitro Agar Screening Tests (Example 4). To be noted: nutrient agar, 37° C, read-out: Minimum Inhibitory Concentration. Type of assay: cell-based. How it is done: as §1, §2
Another assay relates to Bacillus cereus. Put plainly: In Vitro Agar Screening Tests (Example 4). Type of assay: cell-based. The conditions noted are these: nutrient agar, 37° C, read-out: Minimum Inhibitory Concentration. The protocol: as §1, §2
Another assay has as its system Rhizopus stolonifer. Put plainly: In Vitro Agar Screening Tests (Example 4). Type of assay: cell-based. To be noted: potato dextrose agar, 30° C, partial control at this concentration, read-out: Minimum Inhibitory Concentration. The protocol:
as §1, §2

Another assay deals with Scenedesmus obliquus. Put plainly: In Vitro Agar Screening Tests (Example 4). To be noted: Tetradesmus obliquus, modified Jack Meyers agar, room temperature, artificial light, read-out: Minimum Inhibitory Concentration. Type of assay: cell-based. The protocol:
as §1, §2

The subject of assay [5] is Brevibacterium ammoniagenes. In words: In Vitro Agar Screening Tests (Example 4). Type of assay: cell-based. To be noted: Corynebacterium ammoniagenes, nutrient agar, 37° C, read-out: Minimum Inhibitory Concentration. The protocol:
as §1, §2

For another assay, the system named is Euglena gracilis. Put plainly: In Vitro Agar Screening Tests (Example 4). Type of assay: cell-based. The conditions noted are these: modified Jack Meyers agar, room temperature, artificial light, read-out: Minimum Inhibitory Concentration. The protocol: as §1, §2
In another assay the test system is Aspergillus niger. In words: In Vitro Agar Screening Tests (Example 4). Type of assay: cell-based. To be noted: potato dextrose agar, 30° C, read-out: Minimum Inhibitory Concentration. How it is done: as §1, §2
For the next assay, the system named is Trichoderma sp. Put plainly: In Vitro Agar Screening Tests (Example 4). Type of assay: cell-based. To be noted: potato dextrose agar, 30° C, partial control at this concentration, read-out: Minimum Inhibitory Concentration. How it is done: as §1, §2
Another assay deals with Aspergillus fumigatus. In words: In Vitro Agar Screening Tests (Example 4). Type of assay: cell-based. The conditions noted are these: potato dextrose agar, 30° C, read-out: Minimum Inhibitory Concentration. The protocol:
as §1, §2

A further assay relates to Penicillium italicum. In words: In Vitro Agar Screening Tests (Example 4). Type of assay: cell-based. The conditions noted are these: potato dextrose agar, 30° C, read-out: Minimum Inhibitory Concentration. How it is done: as §1, §2
For the next assay, the system named is Pencillium vermiculatum. Put plainly: In Vitro Agar Screening Tests (Example 4). Type of assay: cell-based. The conditions noted are these: potato dextrose agar, 30° C, read-out: Minimum Inhibitory Concentration. The protocol: as §1, §2
The subject of the next assay is Pseudomonas aeruginosa. In words: In Vitro Agar Screening Tests (Example 4). Type of assay: cell-based. To be noted: nutrient agar, 37° C, read-out: Minimum Inhibitory Concentration. The protocol:
as §1, §2

The next assay relates to Chlorella pyrenoidosa. In words: In Vitro Agar Screening Tests (Example 4). Type of assay: cell-based. To be noted: Auxenochlorella pyrenoidosa, modified Jack Meyers agar, room temperature, artificial light, read-out: Minimum Inhibitory Concentration. How it is done:
as §1, §2

Another assay has as its system Enterobacter aerogenes. Put plainly: In Vitro Agar Screening Tests (Example 4). Type of assay: cell-based. To be noted: Klebsiella aerogenes, nutrient agar, 37° C, read-out: Minimum Inhibitory Concentration. How it is done:
as §1, §2

In assay [6] the test system is Desulfovibrio desulfuricans. Put plainly: Sulfate Reducing Bacteria In Vitro Test. Type of assay: cell-based. To be noted: Sulfate API broth with tryptone, anaerobic, room temperature, 3 to 5 days, read-out: minimum inhibitory concentration necessary to control the organism. The protocol:
This test measures the bactericidal properties of a compound when in contact with a sulfate reducing bacteria, specifically Desulfovibrio desulfuricans. The test is conducted by dissolving the test compound in acetone to give an 0.5% solution. This toxicant is added to vials containing sterile Sulfate API broth with tryptone under anaerobic conditions at such levels to give final toxicant concentrations of 1, 5, 10 and 50 ug/ml. of solution. An inoculant solution of 0.5 ml. of the growing organism, Desulfovibrio desulfuricans, is added to the vials followed by sufficient sterile distilled water to give a total of 10 ml. of solution in the vials. The vials are incubated at room temperature for 3 to 5 days until untreated controls show growth of the organism as indicated by the black color development in the vials. The following is a summary of the minimum inhibitory concentration necessary to control the organism.

Regarding `CCOCCOC(=S)SCSC#N` [Compound 1], the MIC in the assay on Staphylococcus aureus [1] was found to be 50 µg/mL (≈ 211 µM); with Aspergillus oryzae, 1 µg/mL (≈ 4.21 µM); with Staphylococcus aureus [3], 5 µg/mL (≈ 21.1 µM); in the assay on Pencillium expansum, 5 µg/mL (≈ 21.1 µM); in assay [4], 10 µg/mL (≈ 42.1 µM); in the assay on Escherichia coli it was 25 µg/mL (≈ 105 µM). The MIC was 10 µg/mL (≈ 42.1 µM) in the assay on Pencillium ochra-chloron; 50 µg/mL (≈ 211 µM) with Pseudomonas fluorescens; more than 50 µg/mL in the assay on Bacillus cereus; 1 µg/mL (≈ 4.21 µM) in the assay on Rhizopus stolonifer; 10 µg/mL (≈ 42.1 µM) in the assay on Scenedesmus obliquus; more than 50 µg/mL in assay [5]. For the same compound, the MIC with Euglena gracilis came to 1 µg/mL (≈ 4.21 µM); with Aspergillus niger, 1 µg/mL (≈ 4.21 µM); with Trichoderma sp., 10 µg/mL (≈ 42.1 µM); with Aspergillus fumigatus it was 5 µg/mL (≈ 21.1 µM); in the assay on Penicillium italicum it was 1 µg/mL (≈ 4.21 µM); with Pencillium vermiculatum, 10 µg/mL (≈ 42.1 µM). The MIC in the assay on Pseudomonas aeruginosa was 50 µg/mL (≈ 211 µM); in the assay with Chlorella pyrenoidosa, 1 µg/mL (≈ 4.21 µM); in the assay on Enterobacter aerogenes, more than 50 µg/mL; in [6], 10 µg/mL (≈ 42.1 µM). Also, in assay [2], the “2-SM PE: concentration at which 50% mortality occurs” value is “.03%”. In addition, the IC50 in the assay on Phoma herbarum was determined as 5 µg/mL (≈ 21.1 µM).
